# Experimental data published in US20070026090A1, “Treatment and prevention of inflammatory disease and mitochondrial dysfunction with high dose selenium” (priority 2003, published 2007).
# “Also recorded” adds a separate entry of the source.
# Tests used:
# [1] = test system: J774.2 macrophages; test: Type of cell death (annexin V-FITC / PI); format: cell-based, murine; conditions: 10 μM, 24 hours; annexin V-FITC and PI
# Experimental: Experiments were performed on cells at 60% confluence.
# Determination of type of cell death: Type of cell death was determined by dual staining with annexin V-FITC (Santa Cruz Biotechnology, Santa Cruz Calif., USA) and PI, and flow cytometric analysis. Cells were treated with 10 μM selenite for 24 h then collected and re-suspended in binding buffer (10 mM HEPES/NaOH, pH 7.4, 140 mM NaCl, 2.5 mM CaCl2). 2.5 μg/ml annexin V-FITC was added and cells were incubated for 30 min at room temperature, then 0.25 μg/ml PI was added and samples were analyzed by flow cytometry (FACSort, Becton Dickenson and. Co., San Jose, Calif. USA).
# [2] = test system: cytochrome c mRNA; test: Cytochrome c mRNA in colon tissue (RT-PCR); format: in vivo, rat; conditions: 24 h after TNBS; supplemented (FIG. 7A lane 4)
# [3] = test system: J774.2 macrophages; test: Mitochondrial membrane potential (CMTMRos, flow cytometry); format: cell-based, murine; conditions: 10 μM; LPS + INFγ activated (FIG. 16B)
# Experimental: (§1) Cell culture: Murine J774.2 macrophages (kindly provided by Prof. Dov Zipori from the Weizmann Institute of Science) were grown in RPMI medium supplemented with 10% (w/v) fetal calf serum, penicillin (100 U/ml), streptomycin (100 μg/ml) and 1× glutamine at 37° C. in a humidified atmosphere consisting of 95% air and 5% CO2. Experiments were performed on cells at 60% confluence.
# Evaluation of mitochondrial membrane potential (MMP) in cells—MMP was detected by flow cytometry (FACSort, Becton Dickenson and Co., San Jose, Calif. USA) using the membrane potential-sensitive fluorescent probe MitoTracker Orange (CMTMRos) (Molecular Probes, Oregon, USA). The following fluorescence setting was used: excitation at 488 nm and emission at 575 nm (FL2 channel) (24,25). Macrophage cells (1 million cells/ml) were stained with 0.1 μM CMTMRos for 30 min at 37° C. Accumulation of the dye in the mitochondria was evaluated by flow cytometer analysis as described hereinabove. Data were collected from 10,000 cells.
# [4] = test system: myocarditic Coxsackie virus B3; conditions: 5 ppm in the water; cited from earlier work
# [5] = test system: mitochondrial respiration in colon tissue; test: Mitochondrial respiration (oxygen consumption) in colon tissue of supplemented rats; format: in vivo, rat
# Experimental: Mitochondrial respiration activity in colon tissue: Mitochondrial respiration was measured by direct assessment of oxygen consumption of the tissue. Briefly, colons were removed, chilled on ice, and washed extensively with cold PBS. Colon tissue samples (5-10 mm in width, 100 mg) were incubated at ambient temperature in PBS supplemented with 5 mM glucose. Oxygen consumption was measured polarographically using a computerized Clark-type oxygen electrode. The addition of the Electron Transport Chain (complex 1) inhibitor rotenone was used to determine whether the majority of oxygen consumption measured in the colon samples was mitochondrial respiration-dependent.
# [6] = test system: glutathione peroxidase (GPx); test: GPx activity in macrophage cell extract; format: cell-based, murine; conditions: 24 h; range 0.5-30 μM (FIG. 8B)
# Experimental: as §1
# GPx activity: GPx activity was determined by following the rate of NADPH oxidation at 340 nm in the presence of the substrates: 3 mM glutathione (GSH), 1.2 U glutathione reductase (GR) and 1.5% H2O2, using a microfluorometer plate reader (GENios, Tecan, Austria). The reaction contained 500 μl Tris reaction buffer (100 mM Tris Hcl, 300 mM Kcl, 5 mM EDTA, 1 mM NaN3, pH 7.0), substrates and 100 μl cell extract. Macrophages were treated with selenium for 24 h. Wells were washed twice with PBS, cells permeabilized, and scraped using 200 μl 0.2% Triton X-100. The reaction was recorded every minute for 25 minutes. Slopes were calculated and the results were adjusted according to the protein amount calculated with the Bradford reagent.
# [7] = test system: lipid peroxidation (MDA); test: Lipid peroxidation: MDA levels in colon tissue (HPLC); format: in vivo, rat; conditions: colitis-induced and uninduced rats, selenium supplemented group; data not presented
# Experimental: Lipid peroxidation—MDA levels: MDA levels in the colon tissue were determined as an indicator of lipid peroxidation using HPLC methodology (Valacchi et al., 2000). Briefly, tissue sections (100 mg) were homogenized in 1% Triton X 100 PBS. The suspended tissue was diluted 1:1 with 1% SDS solution and incubated with 250 ul TBA reagent (0.375 g TBA/100 ml) and 200 ul phosphoric acid (1.22 M) for 30 min at 100° C. Methanol ([…]) was added for protein precipitation and NaOH (20 ml, 1N) added for pH neutralization. After centrifugation, 100 ul clear supernatant was injected into a HPLC system, using a C185 m, 250 mm^a 4.6 mm internal diameter, reversed phase column (Alltech, Deerfield, Ill., USA). The mobile phase consisted of 60% methanol and 40% 50 mM NaH2PO4, pH 5.5. The flow rate was 0.9 ml/min and the detector was set to 532 nm. HPLC colarray ESA was used.
smiles,measurement,setting,value
[Se] [selenium],character of cell death,[1],cell death with necrotic characteristics
same,effect of TNBS-induced colitis on cytochrome c mRNA levels,[2],completely prevented
same,"mitochondrial membrane potential (MMP), activated macrophages",[3],downregulates
same,inflammatory lesions and necrosis,[4],no effect
same,hapten-induced impairment in oxygen consumption,"[5]; 24 h after TNBS, supplemented vs unsupplemented (FIG. 5 C vs D), unsupplemented approximately 70% impairment",prevented a significant proportion
same,oxygen consumption in healthy colon tissue,"[5]; healthy rats, supplemented vs unsupplemented (FIG. 5 B vs A)",little effect; also recorded: did not enhance
same,concentration of maximum stimulation of GPx activity,[6],0.5 µM
same,colon tissue lipid peroxidation (MDA content),[7],no changes
